Measured values as given in patent publication US9795602B2, “Polycyclic-carbamoylpyridone compounds and their pharmaceutical use” (Gilead Sciences, Inc., priority 2014, dated 2017).
pEC50, pIC50: −log10 of the molar value.

Key:
[1] = Pharmacokinetics after intravenous infusion to male SD rats; type: in vivo; conditions: Sprague-Dawley, plasma, rat, IV infusion 0.5 mg/kg; for Vd: read-out: Vss
Experimental: (§1) Pharmacokinetic analysis was performed on compounds 25b and 39 following intravenous or oral administration to rats.
(§2) The test compounds were formulated in 5% Ethanol, 55% PEG 300, and 40% water at 0.1 mg/mL for IV infusion and for oral dosing.
(§3) Each dosing group consisted of 3 male, Sprague-Dawley rats. At dosing, the animals weighed an average of 0.25 kg. The animals were fasted overnight prior to dose administration and up to 4 hr after dosing.
(§4) For the IV infusion group, the test article was administered by intravenous infusion over 30 min. The rate of infusion was adjusted according to the body weight of each animal to deliver a dose of 0.5 mg/kg. For the oral dosing group, the test article was administered by oral gavage at 5 mL/kg for a dose of 0.5 mg/kg.
For pharmacokinetic analysis of intravenously administered compounds, serial venous blood samples (approximately 0.3 mL each) were taken from each animal at 0, 0.250, 0.483, 0.583, 0.750, 1.50, 3.00, 6.00, 8.00, 12.0, 24.0, 48 and 72 hours after dosing. The blood samples were collected into Vacutainer™ tubes containing EDTA-K2 as the anti-coagulant and were immediately placed on wet ice pending centrifugation for plasma. An LC/MS/MS method was used to measure the concentration of the test compound in plasma. An aliquot of 50 μL of each plasma sample was added to a clean 96 well plate, and 200 μL of cold acetonitrile/internal standard solution (ACN)/(ISTD) was added. After protein precipitation, an aliquot of 110 μL of the supernatant was transferred to a clean 96-well plate and diluted with 300 μL of water. An aliquot of 10 μL of the above solution was injected into a ABSciex API-4000 triple quadrupole LC/MS/MS system utilizing a HyPurity C18 HPLC column (30×2.1 mm, 3μ), from Thermo-Hypersil (Part #22103-032130). An Agilent 1200 series binary pump (P/N G1312A Bin Pump) was used for elution and separation, and an HTS Pal autosampler (LEAP Technologies, Carrboro, N.C.) was used for sample injection. A API-4000 triple quadrupole mass spectrometer was utilized in multiple reaction monitoring mode (Applied Biosystems, Foster City, Calif.). Liquid chromatography was performed using two mobile phases: mobile phase A contained 0.1% formic acid and 1% isopropylamine in aqueous solution, and mobile phase B contained […]. Non-compartmental pharmacokinetic analysis was performed on the plasma concentration-time data. The resulting data are shown in the first three columns of Table 2. In Table 2, Cl refers to clearance, which characterizes the rate at which drug is removed from plasma. The lower the clearance of a drug is, the longer the elimination half-life is in the body. Vss refers to the steady state volume of distribution and indicates how well a drug is distributed into the tissues. The larger the Vss is, the longer the elimination half-life is in the body. MRT refers to mean residence time, which is a measure of the average time molecules exist in the body.

[2] = Pharmacokinetics after oral administration to male SD rats; type: in vivo; conditions: Sprague-Dawley, plasma, rat, oral gavage 0.5 mg/kg, solution, read-out: % F (solution)
Experimental: as §1, §2, §3, §4
For pharmacokinetic analysis of orally administered compounds, serial venous blood samples (approximately 0.3 mL each) were taken from each animal at time points of 0, 0.25, 0.50, 1.0, 2.0, 4.0, 6.0, 8.0, 12.0 24.0, 48.0 and 72 hours after dosing. Blood samples were collected, prepared and analyzed in a similar way to the intravenous studies described above. Non-compartmental pharmacokinetic analysis was performed on the plasma concentration-time data. In Table 2, F (%) refers to oral bioavailability.

[3] = molecular target: OCT2 (Homo sapiens (Human), UniProt O15244); assay: OCT2 inhibition assay (14C-TEA uptake, OCT2-transfected MDCKII cells); type: cell-based
Experimental: MDCKII cells were maintained in minimal essential medium (MEM) with 1% Pen/Strep, 10% fetal bovine serum, and 0.25 mg/mL hygromycin B in an incubator set at 37° C., 90% humidity and 5% CO2. 24 hours prior to assay, media containing 5 mM sodium butyrate were added to MDCKII cells in flasks, and cells were grown to 80-90% confluence. On assay day, cells were trypsinized and resuspended in Krebs-Henseleit Buffer (KHB), pH 7.4 at […]. Cells were preincubated for 15 min in assay plate before addition of test compound or substrate.
Test compounds were serially diluted in DMSO and then spiked (2 μL) into in 0.4 mL KHB buffer containing wild-type or OCT2-transfected cells and incubated for 10 minutes. Assay was initiated with the addition of 0.1 mL of 100 μM ^14C-TEA in KHB buffer (20 μM final concentration after mixing). The concentration of TEA is based on the Km. After 10 minutes of incubation, the assay mixture was quenched with addition of 0.5 mL of ice-cold 1×PBS buffer. Samples were then centrifuged at 1000 rpm for 5 min and supernatants were removed. Wash steps were repeated four times with ice-cold PBS. Finally, the cell pellets were lysed with 0.2N NaOH and let sit at room temperature for at least 30 min to ensure complete lysis. Samples were then counted on liquid scintillation counter and dpm counts were used to perform the following calculations. The % inhibition was calculated as follows: % inhibition=[1−{[OCT2]i−[WT]ni}/{[OCT2]ni−[WT]ni}]*100 where, [OCT2]i represents the dpm count in the presence of test compound for either OCT2 cells, […] of test compound for OCT2 cells and [WT]ni represents the dpm count in the absence of test compound for wild type cells, respectively.

[4] = system: HIV-IIIb; assay: Antiviral assay in MT4 cells; type: cell-based; conditions: Human immunodeficiency virus 1, IIIB, MT4, 120 h, MT4 cells, HIV-IIIb, 5 days; read-out: EC50
In short: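 MT4 cells infected with HIV-IIIb (0.004 m.o.i.) or mock-infected, then plated at 2000 cells per well with compound. After 5 days at 37 °C, cell viability read by CellTiter-Glo chemiluminescence.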

[5] = molecular target: PXR (NR1I2) (Homo sapiens (Human), UniProt O75469); assay: Human PXR activation assay (luciferase reporter, DPX2 cells); type: cell-based; conditions: human; 15 uM; DPX2 cells; % Emax relative to rifampicin, adjusted for DMSO background; read-out: PXR % inh at 15 uM (adjusted)
Experimental: Luciferase Reporter Gene Assay.
A stably transformed tumor cell line (DPX2) was plated on 96-well microtiter plates. […]. The number of viable cells was determined and the reporter gene activity was assessed. […]

PXR (NR1I2), sequence (O75469 whole entry): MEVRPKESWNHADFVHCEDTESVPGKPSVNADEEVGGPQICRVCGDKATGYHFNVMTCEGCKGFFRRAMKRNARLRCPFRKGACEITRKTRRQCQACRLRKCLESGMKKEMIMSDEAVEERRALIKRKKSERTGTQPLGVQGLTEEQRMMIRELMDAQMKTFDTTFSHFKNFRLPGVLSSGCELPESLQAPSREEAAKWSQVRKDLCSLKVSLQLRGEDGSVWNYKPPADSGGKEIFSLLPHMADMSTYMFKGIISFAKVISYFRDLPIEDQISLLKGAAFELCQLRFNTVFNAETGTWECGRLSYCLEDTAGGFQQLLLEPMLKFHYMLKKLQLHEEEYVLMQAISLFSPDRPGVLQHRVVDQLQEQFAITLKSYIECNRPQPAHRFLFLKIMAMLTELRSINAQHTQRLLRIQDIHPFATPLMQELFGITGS
OCT2, sequence (O15244 whole entry): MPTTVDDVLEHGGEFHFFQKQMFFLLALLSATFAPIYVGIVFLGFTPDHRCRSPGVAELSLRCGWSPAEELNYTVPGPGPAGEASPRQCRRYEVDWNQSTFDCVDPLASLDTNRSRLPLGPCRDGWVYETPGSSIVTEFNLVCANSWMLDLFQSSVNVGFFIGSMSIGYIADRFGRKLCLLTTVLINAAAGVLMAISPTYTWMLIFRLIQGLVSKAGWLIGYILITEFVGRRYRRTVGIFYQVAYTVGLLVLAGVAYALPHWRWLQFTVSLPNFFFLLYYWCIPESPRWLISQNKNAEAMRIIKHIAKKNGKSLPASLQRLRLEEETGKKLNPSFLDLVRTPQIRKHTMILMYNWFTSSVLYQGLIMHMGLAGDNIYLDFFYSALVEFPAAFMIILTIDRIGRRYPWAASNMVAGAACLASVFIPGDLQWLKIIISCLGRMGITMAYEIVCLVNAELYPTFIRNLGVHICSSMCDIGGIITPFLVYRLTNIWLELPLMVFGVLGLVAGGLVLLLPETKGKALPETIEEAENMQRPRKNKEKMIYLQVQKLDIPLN

CCN1C(=O)c2c(O)c(=O)c(C(=O)NCc3ccc(F)c(Cl)c3F)cn2[C@H]2CCO[C@H]21 [Compound 25b]
MRT [1]: 119 h | clearance [1]: 1.3 mL/h/kg | Vd [1]: 0.141 L/kg | bioavailability [2]: 39% | pIC50 [3]: 5.00 | pEC50 [4]: 8.36 | inhibition at 24 h, 15 µM [5]: 13%

CCN1C(=O)c2c(O)c(=O)c(C(=O)NCc3ccc(F)c(Cl)c3F)cn2[C@H]2CCOC[C@H]21 [Compound 39]
MRT [1]: 105 h | clearance [1]: 2.3 mL/h/kg | Vd [1]: 0.212 L/kg | bioavailability [2]: 15% | pIC50 [3]: 5.00 | pEC50 [4]: 8.59 | inhibition at 24 h, 15 µM [5]: 5%
